Source: patent publication US8865229B2, “Marrubiin and composition for reducing snoring, package and method” (Puranox Medical B.V., priority 2005, dated 2014)

Test system: snoring of a treated person
Experiment: anti-snoring effect when applied in the pharynx via the mouth
Type: in vivo
Details: active component; test details not given
From the text: The invention provides for this purpose a composition for reducing snoring, comprising at least an active quantity of at least one active component with astringent properties and a physiologically acceptable excipient. Such a composition is preferably applied in the pharynx. […] The composition according to the invention can be applied usefully not only in the domestic domain but also in professional situations where a plurality of people must necessarily sleep in the same space, such as in a dormitory, a hospital or military barracks. […] All formulations are based on water: the shown percentages by weight are thus supplemented to 100% with water. Composition A is a liquid composition which can be used for applying with a spray or as droplets. Composition B is a gel formulation. Composition C is a foam.

C[C@@H]1C[C@H]2OC(=O)[C@@]3(C)CCC[C@@](C)([C@@H]23)[C@@]1(O)CCc1ccoc1 [Marrubiin, 6-(2-furan-3-yl-ethyl)-6-hydroxy-2a,5a,7-trimethyldekahydronafto[1,8-bc]furan-2-on]
anti-snoring effect / effects on the level of snoring of a treated person: particularly good anti-snoring effect
